Data as given in the supplement of paper PMC11665569.

Columns and labels:
Assay in all cases: relative viability (fraction of vehicle control); higher = more viable / less inhibited
Details in all cases: treatment time: 5 days
SW1573 = tested on: SW1573
Experimental: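 CCK-8 viability of SW1573 cells transfected with control, YAP/TAZ or TEAD1-4 siRNAs and treated with KRAS G12C inhibitors for 5 days. Values are normalised to vehicle control.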

KYSE410 = tested on: KYSE410
Experimental: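 CCK-8 viability of KYSE410 cells transfected with control, YAP/TAZ or TEAD1-4 siRNAs and treated with KRAS G12C inhibitors for 5 days. Values are normalised to vehicle control.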

H1373 = tested on: H1373
Experimental: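 CCK-8 viability of H1373 cells with empty vector or constitutively active YAP S127A, treated with KRAS G12C inhibitors for 5 days, normalised to vehicle control.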

C=C(F)C(=O)N1CCN(c2nc(OC[C@@H]3CCCN3C)nc3c2CCN(c2cccc4cccc(Cl)c24)C3)C[C@@H]1CC#N [MRTX849]
relative viability
Details | H1373 | KYSE410 | SW1573
log10 concentration (uM): 0, ectopic expression: YAP S127A | 0.547 | – | –
log10 concentration (uM): 0, ectopic expression: empty vector (YAP experiment) | 0.301 | – | –
log10 concentration (uM): 0, siRNA knockdown: TEAD1-4 siRNA 1 | – | 0.319 | 0.154
log10 concentration (uM): 0, siRNA knockdown: TEAD1-4 siRNA 2 | – | 0.212 | 0.307
log10 concentration (uM): 0, siRNA knockdown: YAP/TAZ siRNA 1 | – | 0.273 | 0.0935
log10 concentration (uM): 0, siRNA knockdown: YAP/TAZ siRNA 2 | – | 0.298 | 0.0411
log10 concentration (uM): 0, siRNA knockdown: negative control siRNA | – | 0.646 | 0.426
log10 concentration (uM): 0.69897, ectopic expression: YAP S127A | 0.0844 | – | –
log10 concentration (uM): 0.69897, ectopic expression: empty vector (YAP experiment) | 0.0167 | – | –
log10 concentration (uM): 0.69897, siRNA knockdown: TEAD1-4 siRNA 1 | – | 0.0217 | 0.0234
log10 concentration (uM): 0.69897, siRNA knockdown: TEAD1-4 siRNA 2 | – | 0.0146 | 0.127
log10 concentration (uM): 0.69897, siRNA knockdown: YAP/TAZ siRNA 1 | – | 0.00876 | 0.00636
log10 concentration (uM): 0.69897, siRNA knockdown: YAP/TAZ siRNA 2 | – | 0.00963 | 0.00791
log10 concentration (uM): 0.69897, siRNA knockdown: negative control siRNA | – | 0.0324 | 0.00854
log10 concentration (uM): -0.30103, ectopic expression: YAP S127A | 0.529 | – | –
log10 concentration (uM): -0.30103, ectopic expression: empty vector (YAP experiment) | 0.307 | – | –
log10 concentration (uM): -0.30103, siRNA knockdown: TEAD1-4 siRNA 1 | – | 0.419 | 0.173
log10 concentration (uM): -0.30103, siRNA knockdown: TEAD1-4 siRNA 2 | – | 0.317 | 0.246
log10 concentration (uM): -0.30103, siRNA knockdown: YAP/TAZ siRNA 1 | – | 0.381 | 0.141
log10 concentration (uM): -0.30103, siRNA knockdown: YAP/TAZ siRNA 2 | – | 0.395 | 0.0897
log10 concentration (uM): -0.30103, siRNA knockdown: negative control siRNA | – | 0.715 | 0.66
log10 concentration (uM): -1, ectopic expression: YAP S127A | 0.591 | – | –
log10 concentration (uM): -1, ectopic expression: empty vector (YAP experiment) | 0.436 | – | –
log10 concentration (uM): -1, siRNA knockdown: TEAD1-4 siRNA 1 | – | 0.582 | 0.244
log10 concentration (uM): -1, siRNA knockdown: TEAD1-4 siRNA 2 | – | 0.45 | 0.263
log10 concentration (uM): -1, siRNA knockdown: YAP/TAZ siRNA 1 | – | 0.481 | 0.154
log10 concentration (uM): -1, siRNA knockdown: YAP/TAZ siRNA 2 | – | 0.445 | 0.0905
log10 concentration (uM): -1, siRNA knockdown: negative control siRNA | – | 0.788 | 0.726
log10 concentration (uM): -1.30103, ectopic expression: YAP S127A | 0.578 | – | –
log10 concentration (uM): -1.30103, ectopic expression: empty vector (YAP experiment) | 0.45 | – | –
log10 concentration (uM): -1.30103, siRNA knockdown: TEAD1-4 siRNA 1 | – | 0.704 | 0.262
log10 concentration (uM): -1.30103, siRNA knockdown: TEAD1-4 siRNA 2 | – | 0.572 | 0.289
log10 concentration (uM): -1.30103, siRNA knockdown: YAP/TAZ siRNA 1 | – | 0.559 | 0.161
log10 concentration (uM): -1.30103, siRNA knockdown: YAP/TAZ siRNA 2 | – | 0.525 | 0.108
log10 concentration (uM): -1.30103, siRNA knockdown: negative control siRNA | – | 0.814 | 0.751
log10 concentration (uM): -2, ectopic expression: YAP S127A | 0.781 | – | –
log10 concentration (uM): -2, ectopic expression: empty vector (YAP experiment) | 0.863 | – | –
log10 concentration (uM): -2, siRNA knockdown: TEAD1-4 siRNA 1 | – | 0.871 | 0.463
log10 concentration (uM): -2, siRNA knockdown: TEAD1-4 siRNA 2 | – | 0.648 | 0.452
log10 concentration (uM): -2, siRNA knockdown: YAP/TAZ siRNA 1 | – | 0.767 | 0.23
log10 concentration (uM): -2, siRNA knockdown: YAP/TAZ siRNA 2 | – | 0.735 | 0.181
log10 concentration (uM): -2, siRNA knockdown: negative control siRNA | – | 0.942 | 0.847
log10 concentration (uM): -2.30103, ectopic expression: YAP S127A | 0.818 | – | –
log10 concentration (uM): -2.30103, ectopic expression: empty vector (YAP experiment) | 0.904 | – | –
log10 concentration (uM): -2.30103, siRNA knockdown: TEAD1-4 siRNA 1 | – | 0.873 | 0.552
log10 concentration (uM): -2.30103, siRNA knockdown: TEAD1-4 siRNA 2 | – | 0.793 | 0.5
log10 concentration (uM): -2.30103, siRNA knockdown: YAP/TAZ siRNA 1 | – | 0.855 | 0.345
log10 concentration (uM): -2.30103, siRNA knockdown: YAP/TAZ siRNA 2 | – | 0.868 | 0.308
log10 concentration (uM): -2.30103, siRNA knockdown: negative control siRNA | – | 0.937 | 0.915
log10 concentration (uM): -3, ectopic expression: YAP S127A | 0.938 | – | –
log10 concentration (uM): -3, ectopic expression: empty vector (YAP experiment) | 1.07 | – | –
log10 concentration (uM): -3, siRNA knockdown: TEAD1-4 siRNA 1 | – | 0.888 | 0.913
log10 concentration (uM): -3, siRNA knockdown: TEAD1-4 siRNA 2 | – | 0.869 | 0.702
log10 concentration (uM): -3, siRNA knockdown: YAP/TAZ siRNA 1 | – | 0.936 | 0.582
log10 concentration (uM): -3, siRNA knockdown: YAP/TAZ siRNA 2 | – | 0.915 | 0.531
log10 concentration (uM): -3, siRNA knockdown: negative control siRNA | – | 0.981 | 0.978
log10 concentration (uM): -4, ectopic expression: YAP S127A | 1.01 | – | –
log10 concentration (uM): -4, ectopic expression: empty vector (YAP experiment) | 0.995 | – | –
log10 concentration (uM): -4, siRNA knockdown: TEAD1-4 siRNA 1 | – | 1.04 | 0.988
log10 concentration (uM): -4, siRNA knockdown: TEAD1-4 siRNA 2 | – | 0.951 | 0.877
log10 concentration (uM): -4, siRNA knockdown: YAP/TAZ siRNA 1 | – | 0.946 | 0.915
log10 concentration (uM): -4, siRNA knockdown: YAP/TAZ siRNA 2 | – | 1.01 | 0.845
log10 concentration (uM): -4, siRNA knockdown: negative control siRNA | – | 0.987 | 0.997
